Data as given in patent publication US12459951B2, “Compounds that interact with RAS superfamily proteins for treatment of cancers, inflammatory diseases, rasopathies, and fibrotic disease” (SHY Therapeutics, LLC, priority 2022, dated 2025).

How the values were obtained:
[1] = test system: TNF-alpha; test: TNF-alpha Quantification Assay (ELISA), LPS-stimulated RAW 264.7; assay type: cell-based; conditions: Mus musculus, RAW264.7; at 10 μM; read-out: TNFα: % inh.
[2] = test system: KRas wild type; test: Ras GTP Binding Domain Inhibition Assay (Ras Superfamily Assay); conditions: for KRas wild type + SOS: % inh.: with SOS; for KRas wild type: % inh.: without SOS
How it was run: (§1)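 Binding of 100 nM fluorescent GTP (Cy3 or Cy5, 45 min, room temperature) was read after washes from plate-captured His-tagged protein. Beforehand, compounds at 20 μM or in dilution series for IC50 sat 3 h on the protein in Tris buffer pH 7.4 or 7.0 with 1% DMSO, Sos GEF optionally added for the last hour.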

[3] = test system: KRas G12D mutant; test: as above; conditions: for KRas G12D mutant + SOS: % inh.: with SOS; for KRas G12D mutant: % inh.: without SOS
How it was run: as §1

[4] = target: T1, Rac-1 (Homo sapiens, UniProt P63000); test: as above; conditions: read-out: Rac-1: % inh.
T1 construct: made in house
How it was run: as §1

[5] = test system: Smad2/Smad3 phosphorylation; test: Phospho-Smad2/3 Inhibition Assay (western blot), Panc-1; assay type: cell-based, human; conditions: at 10 μM, Panc-1 pancreatic cancer cell line; starred symbols = activation
How it was run: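 Western blotting of lysates (15-50 μg protein) read phosphorylation of Smad2 Ser465/467 and Smad3 Ser423/425. Before lysis, Panc-1 cells got 1 h of 10 ng/ml TGF-b1 following 3 h compound exposure at 37° C (10 μM final, or serial dilutions for IC50, 0.3% DMSO) after overnight 0.5% FBS starvation.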

SMILES | KRas wild type + SOS: % inh. ([2]; 20 μM compound) | KRas wild type: % inh. ([2]; 20 μM compound) | KRas G12D mutant + SOS: % inh. ([3]; 20 μM compound) | KRas G12D mutant: % inh. ([3]; 20 μM compound) | inhibition at 20 µM [4] [%] | KRas wild type + SOS: % inh. ([2]; at 20 μM) | KRas wild type: % inh. ([2]; at 20 μM) | KRas G12D mutant + SOS: % inh. ([3]; at 20 μM) | KRas G12D mutant: % inh. ([3]; at 20 μM) | inhibition at 10 µM [1] [%] | % inh of Smad2/3 phosphorylation in Panc-1 [5]
COCC1CCN(c2nc(-c3ccccn3)nn3cc(-c4ccn(C(C)C)n4)c(C)c23)C1 (racemic) [Compound 10, rac 6-(1-Isopropyl-1H-pyrazol-3-yl)-4-(3-(methoxymethyl)pyrrolidin-1-yl)-5-methyl-2-(pyridin-2-yl)pyrrolo[2,1-f][1,2,4]triazine] | 0 (0 = 0% inhibition) | A (A = 1-25% inhibition) | 0 (0 = 0% inhibition) | A (A = 1-25% inhibition) | 1 to 25 |  |  |  |  | 0 | A (A = 1-25% inhibition)
COC[C@@H]1CC[C@@H]1CNc1nc(-c2ccccn2)nn2cc(-c3ccn(C(C)C)n3)c(C)c12 (racemic) [Compound 11, rac 6-(1-Isopropyl-1H-pyrazol-3-yl)-N-(((1S,2R)-2-(methoxymethyl)cyclobutyl)methyl)-5-methyl-2-(pyridin-2-yl)pyrrolo[2,1-f][1,2,4]triazin-4-amine] | 0 (0 = 0% inhibition) | 0 (0 = 0% inhibition) | 0 (0 = 0% inhibition) | A (A = 1-25% inhibition) | 0 |  |  |  |  | 0 | 0 (0 = 0% inhibition)
COC1CCCN(c2nc(-c3ccccn3)nn3cc(-c4ccn(C(C)C)n4)c(C)c23)C1 (racemic) [Compound 12, rac 6-(1-Isopropyl-1H-pyrazol-3-yl)-4-(3-methoxypiperidin-1-yl)-5-methyl-2-(pyridin-2-yl)pyrrolo[2,1-f][1,2,4]triazine] | 0 (0 = 0% inhibition) | 0 (0 = 0% inhibition) | 0 (0 = 0% inhibition) | A (A = 1-25% inhibition) | 0 |  |  |  |  | 0 | 0 (0 = 0% inhibition)

The next lines start with results.

KRas wild type + SOS: % inh. ([2]; 20 μM compound) | KRas wild type: % inh. ([2]; 20 μM compound) | KRas G12D mutant + SOS: % inh. ([3]; 20 μM compound) | KRas G12D mutant: % inh. ([3]; 20 μM compound) | inhibition at 20 µM [4] [%] | KRas wild type + SOS: % inh. ([2]; at 20 μM) | KRas wild type: % inh. ([2]; at 20 μM) | KRas G12D mutant + SOS: % inh. ([3]; at 20 μM) | KRas G12D mutant: % inh. ([3]; at 20 μM) | SMILES | inhibition at 10 µM [1] [%] | % inh of Smad2/3 phosphorylation in Panc-1 [5]
A (A = 1-25% inhibition) | A (A = 1-25% inhibition) | 0 (0 = 0% inhibition) | A (A = 1-25% inhibition) | 1 to 25 |  |  |  |  | CO[C@H]1CC[C@H](Nc2nc(-c3nccn3C)nn3cc(-c4ccn(C)n4)c(C(=O)NCC(F)(F)F)c23)C1 (racemic) [Compound 181, 4-(((1S,3S)-3-Methoxycyclopentyl)amino)-2-(1-methyl-1H-imidazol-2-yl)-6-(1-methyl-1H-pyrazol-3-yl)-N-(2,2,2-trifluoroethyl)pyrrolo[2,1-f][1,2,4]triazine-5-carboxamide] | 1 to 24 | A (A = 1-25% inhibition)
A (A = 1-25% inhibition) | A (A = 1-25% inhibition) | 0 (0 = 0% inhibition) | A (A = 1-25% inhibition) | 1 to 25 |  |  |  |  | CO[C@H]1CC[C@H](Nc2nc(-c3nccn3C)nn3cc(-c4ccn(C)n4)c(C(=O)NC4CC4)c23)C1 (racemic) [Compound 182, rac N-Cyclopropyl-4-(((1S,3S)-3-methoxycyclo-pentyl)amino)-2-(1-methyl-1H-imidazol-2-yl)-6-(1-methyl-1H-pyrazol-3-yl)pyrrolo[2,1-f][1,2,4]triazine-5-carboxamide] | 1 to 24 | A* (A* = 1-25% activation)
 |  |  |  | 1 to 25 | A (A = 1-25% inhibition) | A (A = 1-25% inhibition) | A (A = 1-25% inhibition) | A (A = 1-25% inhibition) | CO[C@H]1C[C@H](Nc2nc(-c3nccn3C)nn3cc(-c4cccc(OCCN)c4)c(-c4ccccc4)c23)C1 [Compound 205, 6-(3-(2-Aminoethoxy)phenyl)-N-((1r,3r)-3-methoxycyclobutyl)-2-(1-methyl-1H-imidazol-2-yl)-5-phenylpyrrolo[2,1-f][1,2,4]triazin-4-amine] |  | D (D = 76-100% inhibition)
